Measured values as given in the NIST ThermoML archive (doi:10.1016/j.tca.2015.08.013).

Settings: for surface tension liquid-gas: Drop volume; for mass density / kinematic viscosity / speed of sound / vapor or sublimation pressure: Liquid; for mass density: Vibrating tube method; for kinematic viscosity / speed of sound: 101.33 kPa; for kinematic viscosity: Capillary tube (Ostwald / Ubbelohde) method; for speed of sound: Sing-around technique in a fixed-path interferometer; for vapor or sublimation pressure: Ebulliometric method (Recirculating still)

Cc1ccc(C)o1 [2,5-dimethylfuran]
Settings | kinematic viscosity [m2/s] | speed of sound [m/s] | surface tension liquid-gas [mN/m] | vapor or sublimation pressure [kPa]
278.15 K | 6.7e-07 | 1281.9 | 27.5 | –
280.65 K | 6.5e-07 | 1271.1 | 27.19 | –
283.15 K | 6.34e-07 | 1260.2 | 26.86 | –
283.16 K | – | – | – | 3.015
285.65 K | 6.12e-07 | 1249.2 | 26.57 | –
288.15 K | 5.95e-07 | 1238.3 | 26.22 | –
288.36 K | – | – | – | 4.037
290.65 K | 5.79e-07 | 1227.5 | 25.91 | 4.575
293.15 K | 5.63e-07 | 1216.5 | 25.54 | –
293.16 K | – | – | – | 5.195
295.65 K | 5.48e-07 | 1206.3 | 25.3 | –
298.15 K | 5.34e-07 | 1194.9 | 25 | –
298.25 K | – | – | – | 6.75
300.65 K | 5.2e-07 | 1185 | 24.67 | –
302.52 K | – | – | – | 8.37
303.15 K | 5.04e-07 | 1173.3 | 24.33 | –
305.65 K | 4.95e-07 | 1163.8 | 24.02 | –
308.15 K | 4.83e-07 | 1151.9 | 23.7 | –
309.17 K | – | – | – | 11.59
310.65 K | 4.71e-07 | 1142.5 | 23.34 | –
313.15 K | 4.57e-07 | 1130.7 | 23.01 | –
314.61 K | – | – | – | 14.8
315.65 K | 4.5e-07 | 1121.2 | 22.7 | –
318.15 K | 4.4e-07 | 1109.5 | 22.29 | –
319.27 K | – | – | – | 18.09
320.65 K | 4.3e-07 | 1100 | 21.97 | –
323.15 K | 4.23e-07 | 1088.5 | 21.69 | –
324.99 K | – | – | – | 22.86
325.65 K | 4.12e-07 | 1078.7 | 21.29 | –
328.09 K | – | – | – | 26.07
328.15 K | 4.03e-07 | 1067.6 | 20.95 | –
330.65 K | 3.95e-07 | 1057.5 | 20.58 | –
332.43 K | – | – | – | 30.95
333.15 K | 3.89e-07 | 1046.9 | 20.34 | –
335.48 K | – | – | – | 34.85
335.65 K | 3.8e-07 | 1036.2 | 20.01 | –
338.15 K | 3.72e-07 | 1029.2 | 19.65 | –
338.4 K | – | – | – | 38.81
340.95 K | – | – | – | 42.52
343.11 K | – | – | – | 46.09
345.85 K | – | – | – | 50.77
348.13 K | – | – | – | 55.05
350.87 K | – | – | – | 60.51
352.82 K | – | – | – | 64.61
354.3 K | – | – | – | 68.12
356.1 K | – | – | – | 72.15
357.87 K | – | – | – | 76.61
359.42 K | – | – | – | 80.63
361.09 K | – | – | – | 85.02
362.46 K | – | – | – | 88.86
363.39 K | – | – | – | 91.39
364.36 K | – | – | – | 94.28
365.26 K | – | – | – | 97.05
366.7 K | – | – | – | 101.33

Settings | mass density [kg/m3]
278.15 K, 99 kPa | 917.53
280.65 K, 99 kPa | 914.899
283.15 K, 99 kPa | 912.247
283.15 K, 100 kPa | 912.25
283.15 K, 2500 kPa | 914.37
283.15 K, 5000 kPa | 916.47
283.15 K, 7500 kPa | 918.52
283.15 K, 10000 kPa | 920.53
283.15 K, 20000 kPa | 928.2
283.15 K, 30000 kPa | 935.24
283.15 K, 40000 kPa | 941.89
283.15 K, 50000 kPa | 948.12
283.15 K, 60000 kPa | 953.98
285.65 K, 99 kPa | 909.614
288.15 K, 99 kPa | 906.988
288.15 K, 100 kPa | 906.99
288.15 K, 2500 kPa | 909.13
288.15 K, 5000 kPa | 911.29
288.15 K, 7500 kPa | 913.42
288.15 K, 10000 kPa | 915.49
288.15 K, 20000 kPa | 923.34
288.15 K, 30000 kPa | 930.62
288.15 K, 40000 kPa | 937.41
288.15 K, 50000 kPa | 943.72
288.15 K, 60000 kPa | 949.78
290.65 K, 99 kPa | 904.299
293.15 K, 99 kPa | 901.636
293.15 K, 100 kPa | 901.64
293.15 K, 2500 kPa | 903.82
293.15 K, 5000 kPa | 906.07
293.15 K, 7500 kPa | 908.26
293.15 K, 10000 kPa | 910.4
293.15 K, 20000 kPa | 918.5
293.15 K, 30000 kPa | 925.97
293.15 K, 40000 kPa | 932.94
293.15 K, 50000 kPa | 939.57
293.15 K, 60000 kPa | 945.6
295.65 K, 99 kPa | 898.951
298.15 K, 99 kPa | 896.285
298.15 K, 100 kPa | 896.29
298.15 K, 2500 kPa | 898.6
298.15 K, 5000 kPa | 900.94
298.15 K, 7500 kPa | 903.16
298.15 K, 10000 kPa | 905.39
298.15 K, 20000 kPa | 913.73
298.15 K, 30000 kPa | 921.4
298.15 K, 40000 kPa | 928.44
298.15 K, 50000 kPa | 935.19
298.15 K, 60000 kPa | 941.44
300.65 K, 99 kPa | 893.569
303.15 K, 99 kPa | 890.898
303.15 K, 100 kPa | 890.9
303.15 K, 2500 kPa | 893.25
303.15 K, 5000 kPa | 895.65
303.15 K, 7500 kPa | 897.97
303.15 K, 10000 kPa | 900.25
303.15 K, 20000 kPa | 908.83
303.15 K, 30000 kPa | 916.74
303.15 K, 40000 kPa | 924.06
303.15 K, 50000 kPa | 930.89
303.15 K, 60000 kPa | 937.27
305.65 K, 99 kPa | 888.151
308.15 K, 99 kPa | 885.447
308.15 K, 100 kPa | 885.45
308.15 K, 2500 kPa | 887.9
308.15 K, 5000 kPa | 890.36
308.15 K, 7500 kPa | 892.78
308.15 K, 10000 kPa | 895.14
308.15 K, 20000 kPa | 903.98
308.15 K, 30000 kPa | 912.1
308.15 K, 40000 kPa | 919.56
308.15 K, 50000 kPa | 926.54
308.15 K, 60000 kPa | 933.08
310.65 K, 99 kPa | 882.693
313.15 K, 99 kPa | 879.927
313.15 K, 100 kPa | 879.93
313.15 K, 2500 kPa | 882.45
313.15 K, 5000 kPa | 885.02
313.15 K, 7500 kPa | 887.51
313.15 K, 10000 kPa | 889.95
313.15 K, 20000 kPa | 899.05
313.15 K, 30000 kPa | 907.41
313.15 K, 40000 kPa | 915.12
313.15 K, 50000 kPa | 922.3
313.15 K, 60000 kPa | 928.9
315.65 K, 99 kPa | 877.195
318.15 K, 99 kPa | 874.437
318.15 K, 100 kPa | 874.44
318.15 K, 2500 kPa | 877.03
318.15 K, 5000 kPa | 879.68
318.15 K, 7500 kPa | 882.27
318.15 K, 10000 kPa | 884.79
318.15 K, 20000 kPa | 894.18
318.15 K, 30000 kPa | 902.74
318.15 K, 40000 kPa | 910.6
318.15 K, 50000 kPa | 917.91
318.15 K, 60000 kPa | 924.74
320.65 K, 99 kPa | 871.651
323.15 K, 99 kPa | 868.85
323.15 K, 100 kPa | 868.85
323.15 K, 2500 kPa | 871.55
323.15 K, 5000 kPa | 874.3
323.15 K, 7500 kPa | 876.94
323.15 K, 10000 kPa | 879.54
323.15 K, 20000 kPa | 889.25
323.15 K, 30000 kPa | 898.07
323.15 K, 40000 kPa | 906.13
323.15 K, 50000 kPa | 913.67
323.15 K, 60000 kPa | 920.58
325.65 K, 99 kPa | 866.06
328.15 K, 99 kPa | 863.248
328.15 K, 100 kPa | 863.25
328.15 K, 2500 kPa | 866.05
328.15 K, 5000 kPa | 868.91
328.15 K, 7500 kPa | 871.68
328.15 K, 10000 kPa | 874.38
328.15 K, 20000 kPa | 884.36
328.15 K, 30000 kPa | 893.38
328.15 K, 40000 kPa | 901.61
328.15 K, 50000 kPa | 909.29
328.15 K, 60000 kPa | 916.43
330.65 K, 99 kPa | 860.418
333.15 K, 99 kPa | 857.577
333.15 K, 100 kPa | 857.58
333.15 K, 2500 kPa | 860.47
333.15 K, 5000 kPa | 863.42
333.15 K, 7500 kPa | 866.28
333.15 K, 10000 kPa | 869.07
333.15 K, 20000 kPa | 879.4
333.15 K, 30000 kPa | 888.7
333.15 K, 40000 kPa | 897.22
333.15 K, 50000 kPa | 905.17
333.15 K, 60000 kPa | 912.4
335.65 K, 99 kPa | 854.721
338.15 K, 99 kPa | 851.85
338.15 K, 100 kPa | 851.85
338.15 K, 2500 kPa | 854.88
338.15 K, 5000 kPa | 857.96
338.15 K, 7500 kPa | 860.93
338.15 K, 10000 kPa | 863.81
338.15 K, 20000 kPa | 874.45
338.15 K, 30000 kPa | 884.02
338.15 K, 40000 kPa | 892.61
338.15 K, 50000 kPa | 900.74
338.15 K, 60000 kPa | 908.17
